Experimental findings from publication PMC4295349, “Synthetic Antimicrobial Peptides Exhibit Two Different Binding Mechanisms to the Lipopolysaccharides Isolated from Pseudomonas aeruginosa and Klebsiella pneumoniae” (International Journal of Medicinal Chemistry, 2014) are described below.

Read-outs that look alike come from different tables or passages of the source. Where a SMILES comes first, the peptide text is derived from it. [ ]: non-standard residue; d: D form. ξ: configuration not given here. Oic = O=C(O)[C@@H]1C[C@@H]2CCCC[C@@H]2N1; Oic(3aξ,7aξ) = O=C(O)[C@@H]1CC2CCCCC2N1; Tic = O=C(O)[C@@H]1Cc2ccccc2CN1; βAla = NCCC(=O)O

The term MBC denotes the lowest tested concentration that kills the bacteria rather than only halting them. Low readings indicate greater bactericidal potency, high ones weaker bactericidal potency. By MIC is commonly meant the smallest concentration in the dilution series that meets the test's criterion for growth inhibition. A lower MIC goes with a more susceptible organism.

Test [1] deals with P. aeruginosa PAO1. Format: cell-based, Pseudomonas aeruginosa. From the text: Table 3 In vitro minimum inhibitory concentration (MIC) and minimum bactericide concentration (MBC) activity against K. pneumonia and P. aeruginosa. | column: P. aeruginosa PAO1 / MBC (µg/mL)/(μM)
Test [2] relates to LPS isolated from P. aeruginosa. Put plainly: 1H NMR of LPS on addition of AMP. The test is classed as binding, Pseudomonas aeruginosa. The note with it: 1.0 mg/mL LPS + 0.1 mg AMP in 600 μL 150 mM perdeuterated sodium acetate buffer pH 5.64 in D2O, 298 K. The method, then:
(§1) All ^1H experiments were conducted at 298 K on a Bruker Avance III 400 MHz NMR spectrometer equipped with a 5 mm direct observe Z-gradient broad-band probe. The spectral width was 4,000 Hz, 256 FIDs were collected per experiment. Data were processed using exponential multiplication with a line-broadening function of 5 Hz. Samples contained 1.0 mg/mL of the LPS in the presence of 0.1 mg of the AMP in 600 μL of a 150 mM perdeuterated sodium acetate buffer at a pH of 5.64 in D2O.

The test system of test [3] is P. aeruginosa PAO1. The note with it: for in vitro inhibitory activity: against P. aeruginosa.
For test [4], the system named is LPS isolated from K. pneumoniae. The test is described as follows: 1H NMR of LPS on addition of AMP. The test is classed as binding, Klebsiella pneumoniae. The note with it: 1.0 mg/mL LPS + 0.1 mg AMP in 600 μL 150 mM perdeuterated sodium acetate buffer pH 5.64 in D2O, 298 K. As to the method: as §1
For test [5], the system named is K. pneumoniae BAMC 07-18. The test is classed as cell-based, Klebsiella pneumoniae. From the text: Table 3 In vitro minimum inhibitory concentration (MIC) and minimum bactericide concentration (MBC) activity against K. pneumonia and P. aeruginosa. | column: K. pneumoniae BAMC 07-18 / MBC (μg/mL)/(μM)
Test [6] deals with K. pneumoniae BAMC 07-18. The note with it: for in vitro inhibitory activity: against K. pneumoniae.
The mark [7] stands for this setting: P. aeruginosa PAO1, light face value.
Setting [8] is: K. pneumoniae BAMC 07-18, light face value.

On to `CC(=O)N[C@@H](CCCCN)C(=O)N[C@@H](CC(C)C)C(=O)N1Cc2ccccc2C[C@H]1C(=O)N1[C@H](C(=O)N[C@@H](CCCCN)C(=O)N2Cc3ccccc3C[C@H]2C(=O)N2[C@H](C(=O)N[C@@H](Cc3ccccc3)C(=O)N3Cc4ccccc4C[C@H]3C(=O)N3[C@H](C(=O)N[C@@H](CCCCN)C(=O)N4Cc5ccccc5C[C@H]4C(=O)N4[C@H](C(=O)N[C@@H](Cc5ccccc5)C(=O)N5Cc6ccccc6C[C@H]5C(=O)N5[C@H](C(=O)N[C@@H](CCCCN)C(=O)N6Cc7ccccc7C[C@H]6C(=O)N6[C@H](C(=O)N[C@@H](CCCCN)C(=O)N[C@@H](CCCCN)C(=O)N[C@@H](CCCCN)C(=O)N[C@@H](CCCCN)C(N)=O)C[C@@H]7CCCC[C@@H]76)C[C@@H]6CCCC[C@@H]65)C[C@@H]5CCCC[C@@H]54)C[C@@H]4CCCC[C@@H]43)C[C@@H]3CCCC[C@@H]32)C[C@@H]2CCCC[C@@H]21` [AMP 70] (Ac-KL[Tic][Oic]K[Tic][Oic]F[Tic][Oic]K[Tic][Oic]F[Tic][Oic]K[Tic][Oic]KKKK-NH2), for which the MBC against P. aeruginosa PAO1 [1] (PAO1) and against K. pneumoniae BAMC 07-18 [5] (BAMC 07-18) was over 100 µg/mL each time. Moreover, the “change of LPS 1H NMR resonances between 1.5 and 0.5 ppm (lipid A side chains)” value (shortened to “change … (lipid A side chains)”) in test [2] is reported as “significant reduction in the peak heights”. Moreover, the MIC in the test with P. aeruginosa PAO1 [3] (PAO1) and against K. pneumoniae BAMC 07-18 [6] (BAMC 07-18) was over 100 µg/mL each time. Also, the “in vitro inhibitory activity” value in the test on P. aeruginosa PAO1 [3] and with K. pneumoniae BAMC 07-18 [6] was at least 100 µg/mL throughout. Besides, the “change of LPS 1H NMR resonances in the region of 1.8 to 0.7 ppm (lipid A)” value (from here on “change of LPS 1H NMR resonances … (lipid A)”) in test [4] is “reduction in the signal intensity”.

In the case of `CC(C)C[C@H](NC(=O)[C@@H](N)CCCCN)C(=O)N1Cc2ccccc2C[C@H]1C(=O)N1[C@H](C(=O)N[C@@H](CCCCN)C(=O)N2Cc3ccccc3C[C@H]2C(=O)N2[C@H](C(=O)NCC(=O)N[C@@H](Cc3ccccc3)C(=O)N3Cc4ccccc4C[C@H]3C(=O)N3[C@H](C(=O)N[C@@H](CCCCN)C(=O)N4Cc5ccccc5C[C@H]4C(=O)N4[C@H](C(=O)NCC(=O)N[C@@H](Cc5ccccc5)C(=O)N5Cc6ccccc6C[C@H]5C(=O)N5[C@H](C(=O)N[C@@H](CCCCN)C(=O)N6Cc7ccccc7C[C@H]6C(=O)N6[C@H](C(=O)N[C@@H](CCCCN)C(=O)N[C@@H](CCCCN)C(=O)N[C@@H](CCCCN)C(=O)N[C@@H](CCCCN)C(N)=O)C[C@@H]7CCCC[C@@H]76)C[C@@H]6CCCC[C@@H]65)C[C@@H]5CCCC[C@@H]54)C[C@@H]4CCCC[C@@H]43)C[C@@H]3CCCC[C@@H]32)C[C@@H]2CCCC[C@@H]21` [AMP 75] (H-KL[Tic][Oic]K[Tic][Oic]GF[Tic][Oic]K[Tic][Oic]GF[Tic][Oic]K[Tic][Oic]KKKK-NH2), the results for the MBC with P. aeruginosa PAO1 [1] (setting [7]) and in the test with P. aeruginosa PAO1 [1] (PAO1) were 50 µg/mL and 14.6 µM, respectively. Besides, in test [2], the “change … (lipid A side chains)” value is recorded as “significant reduction in the peak heights”. Moreover, the MIC in the test on P. aeruginosa PAO1 [3] (setting [7]) worked out at 50 µg/mL; with P. aeruginosa PAO1 [3] (PAO1) it was 14.6 µM. Besides, the “in vitro inhibitory activity” value with P. aeruginosa PAO1 [3] was 50 µg/mL; in the test on K. pneumoniae BAMC 07-18 [6] it was at least 100 µg/mL. For the same compound, the “change of LPS 1H NMR resonances … (lipid A)” value in test [4] was “reduction in the signal intensity”.

Turning to `CC(C)C[C@H](NC(=O)[C@@H](N)CCCCN)C(=O)N1Cc2ccccc2C[C@H]1C(=O)N1C2CCCCC2C[C@H]1C(=O)N[C@@H](CCCCN)C(=O)NCC(=O)N1Cc2ccccc2C[C@H]1C(=O)N1C2CCCCC2C[C@H]1C(=O)N[C@@H](Cc1ccccc1)C(=O)NCC(=O)N1Cc2ccccc2C[C@H]1C(=O)N1C2CCCCC2C[C@H]1C(=O)N[C@@H](CCCCN)C(=O)NCC(=O)N1Cc2ccccc2C[C@H]1C(=O)N1C2CCCCC2C[C@H]1C(=O)N[C@@H](Cc1ccccc1)C(=O)NCC(=O)N1Cc2ccccc2C[C@H]1C(=O)N1C2CCCCC2C[C@H]1C(=O)N[C@@H](CCCCN)C(=O)NCC(=O)N1Cc2ccccc2C[C@H]1C(=O)N1C2CCCCC2C[C@H]1C(=O)N[C@@H](CCCCN)C(=O)N[C@@H](CCCCN)C(=O)N[C@@H](CCCCN)C(=O)N[C@@H](CCCCN)C(N)=O` (some centres unmarked) [AMP 79] (H-KL[Tic][Oic(3aξ,7aξ)]KG[Tic][Oic(3aξ,7aξ)]FG[Tic][Oic(3aξ,7aξ)]KG[Tic][Oic(3aξ,7aξ)]FG[Tic][Oic(3aξ,7aξ)]KG[Tic][Oic(3aξ,7aξ)]KKKK-NH2), the MBC against P. aeruginosa PAO1 [1] (setting [7]) is 50 µg/mL; against P. aeruginosa PAO1 [1] (PAO1), 13.9 µM; against K. pneumoniae BAMC 07-18 [5] (BAMC 07-18) it was 13.9 µM; in the test on K. pneumoniae BAMC 07-18 [5] (setting [8]) it was 50 µg/mL. Further, the “change … (lipid A side chains)” value in test [2] is “significant reduction in the peak heights”. Besides, the MIC was determined as 50 µg/mL with P. aeruginosa PAO1 [3] (setting [7]), 13.9 µM in the test on P. aeruginosa PAO1 [3] (PAO1), 13.9 µM in the test on K. pneumoniae BAMC 07-18 [6] (BAMC 07-18) and 50 µg/mL with K. pneumoniae BAMC 07-18 [6] (setting [8]). Besides, the “in vitro inhibitory activity” value in the test on P. aeruginosa PAO1 [3] and in the test with K. pneumoniae BAMC 07-18 [6] was 50 µg/mL in each case. Also, in test [4], the “change of LPS 1H NMR resonances … (lipid A)” value is given as “reduction in the signal intensity”.

Regarding `CC(C)C[C@H](NC(=O)[C@@H](N)CCCCN)C(=O)N1Cc2ccccc2C[C@H]1C(=O)N1C2CCCCC2C[C@H]1C(=O)NCC(=O)N[C@@H](CCCCN)C(=O)N1Cc2ccccc2C[C@H]1C(=O)N1C2CCCCC2C[C@H]1C(=O)NCCC(=O)N[C@@H](Cc1ccccc1)C(=O)N1Cc2ccccc2C[C@H]1C(=O)N1C2CCCCC2C[C@H]1C(=O)NCC(=O)N[C@@H](CCCCN)C(=O)N1Cc2ccccc2C[C@H]1C(=O)N1C2CCCCC2C[C@H]1C(=O)NCCC(=O)N[C@@H](Cc1ccccc1)C(=O)N1Cc2ccccc2C[C@H]1C(=O)N1C2CCCCC2C[C@H]1C(=O)NCC(=O)N[C@@H](CCCCN)C(=O)N1Cc2ccccc2C[C@H]1C(=O)N1C2CCCCC2C[C@H]1C(=O)N[C@@H](CCCCN)C(=O)N[C@@H](CCCCN)C(=O)N[C@@H](CCCCN)C(=O)N[C@@H](CCCCN)C(N)=O` (some centres unmarked) [AMP 80] (H-KL[Tic][Oic(3aξ,7aξ)]GK[Tic][Oic(3aξ,7aξ)][βAla]F[Tic][Oic(3aξ,7aξ)]GK[Tic][Oic(3aξ,7aξ)][βAla]F[Tic][Oic(3aξ,7aξ)]GK[Tic][Oic(3aξ,7aξ)]KKKK-NH2), the MBC with P. aeruginosa PAO1 [1] (setting [7]) was 50 µg/mL; against P. aeruginosa PAO1 [1] (PAO1), 13.8 µM; in the test with K. pneumoniae BAMC 07-18 [5] (BAMC 07-18), 13.8 µM; in the test on K. pneumoniae BAMC 07-18 [5] (setting [8]) it was 50 µg/mL. Moreover, the “change … (lipid A side chains)” value in test [2] was “significant reduction in the peak heights”. In addition, the MIC with P. aeruginosa PAO1 [3] (setting [7]) was 25 µg/mL; in the test with P. aeruginosa PAO1 [3] (PAO1), 6.9 µM; in the test with K. pneumoniae BAMC 07-18 [6] (BAMC 07-18), 13.8 µM; against K. pneumoniae BAMC 07-18 [6] (setting [8]) it was 50 µg/mL. Also, the “in vitro inhibitory activity” value in the test with P. aeruginosa PAO1 [3] and in the test with K. pneumoniae BAMC 07-18 [6] was 50 µg/mL in each case. The “change of LPS 1H NMR resonances … (lipid A)” value in test [4] was “reduction in the signal intensity”.

Turning to “H2N-KL-Tic-Oic-GK-Tic-Oic-F-Tic-Oic-GK-Tic-Oic-F-Tic-Oic-GK-Tic-Oic-KKKK-CONH2 [AMP 74]”, in test [2], the “change … (lipid A side chains)” value was “significant reduction in the peak heights”. For the same compound, the “in vitro inhibitory activity” value in the test with P. aeruginosa PAO1 [3] and with K. pneumoniae BAMC 07-18 [6] was at least 100 µg/mL in each case. Further, in test [4], the “change of LPS 1H NMR resonances … (lipid A)” value is given as “reduction in the signal intensity”.
